Test results published in patent US20140288071A1, “INHIBITORS OF NOTUM […] AND METHODS OF THEIR USE” (priority 2011, published 2014).

Molecular target: T1, human notum pectinacetyltransferase (Homo sapiens, UniProt Q6P988)
T1 construct: made in house; conditioned medium used
T1 sequence (Q6P988 20-496): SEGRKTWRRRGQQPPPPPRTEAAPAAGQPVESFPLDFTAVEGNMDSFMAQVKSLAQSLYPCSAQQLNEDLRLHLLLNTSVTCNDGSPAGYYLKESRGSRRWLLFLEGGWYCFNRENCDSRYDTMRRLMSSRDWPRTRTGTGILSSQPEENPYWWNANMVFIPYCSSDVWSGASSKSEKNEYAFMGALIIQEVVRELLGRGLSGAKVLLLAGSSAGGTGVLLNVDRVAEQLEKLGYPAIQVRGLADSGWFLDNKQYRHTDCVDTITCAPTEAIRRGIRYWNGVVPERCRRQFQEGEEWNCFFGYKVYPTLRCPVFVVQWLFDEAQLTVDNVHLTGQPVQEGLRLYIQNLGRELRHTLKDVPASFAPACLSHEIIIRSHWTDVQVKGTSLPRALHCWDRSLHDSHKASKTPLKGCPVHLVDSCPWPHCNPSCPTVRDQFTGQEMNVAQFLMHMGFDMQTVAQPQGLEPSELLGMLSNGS
Assay: Binding assay (OPTS esterase substrate, fluorimetric)
Format: biochemical
Details: OPTS substrate 5 μM
Procedure: Plasmid containing human notum pectinacetyltransferase in pcDNA3.1(+) vector was transfected into HEK293 cells and clones were selecting by growing in presence of 400 ug/mL of G418. Condition media from these cells was used for the assay.

Structure (SMILES)	IC50 [nM]
COc1cc2c(cc1OC)CN(C(=O)CSc1ncnc3sc(C)c(C)c13)C2 [1-(5,6-dimethoxyisoindolin-2-yl)-2-((5,6-dimethylthieno[2,3-d]pyrimidin-4-yl)thio)ethanone]	< 25
Cc1c(Cl)sc2ncnc(SCC(=O)O)c12 [2-((6-chloro-5-methylthieno[2,3-d]pyrimidin-4-yl)thio)acetic acid]	< 25
Cc1sc2ncnc(SCC(=O)Nc3ccccc3F)c2c1C [2-((5,6-dimethylthieno[2,3-d]pyrimidin-4-yl)thio)-N-(2-fluorophenyl)acetamide]	< 25
Cc1sc2ncnc(SCC(=O)NCc3ccncc3)c2c1Cl [2-((5-chloro-6-methylthieno[2,3-d]pyrimidin-4-yl)thio)-N-(pyridin-4-ylmethyl)acetamide]	< 25
Cc1sc2ncnc(SCC(=O)NCc3cccs3)c2c1Cl [2-((5-chloro-6-methylthieno[2,3-d]pyrimidin-4-yl)thio)-N-(thiophen-2-ylmethyl)acetamide]	< 25
CCCNC(=O)CSc1ncnc2sc(C)c(Cl)c12 [2-((5-chloro-6-methylthieno[2,3-d]pyrimidin-4-yl)thio)-N-propylacetamide]	< 25
Cc1c(Br)sc2c(SCC(=O)O)ncnc12 [2-((6-bromo-7-methylthieno[3,2-d]pyrimidin-4-yl)thio)acetic acid]	< 25
Cc1csc2ncnc(SCC(=O)O)c12 [2-((5-methylthieno[2,3-d]pyrimidin-4-yl)thio)acetic acid]	< 100
CCc1sc2ncnc(SCC(=O)O)c2c1C [2-((6-ethyl-5-methylthieno[2,3-d]pyrimidin-4-yl)thio)acetic acid]	< 25
Cc1csc(CCNC(=O)CSc2ncnc3sc(C)c(Cl)c23)n1 [2-((5-chloro-6-methylthieno[2,3-d]pyrimidin-4-yl)thio)-N-(2-(4-methylthiazol-2-yl)ethyl)acetamide]	< 25
Cc1sc2ncnc(SCC(=O)NCCc3c[nH]cn3)c2c1Cl [N-(2-(1H-imidazol-4-yl)ethyl)-2-((5-chloro-6-methylthieno[2,3-d]pyrimidin-4-yl)thio)acetamide]	< 25
COC(=O)CSc1ncnc2c(C3CC3)c(Cl)sc12 [methyl 2-((6-chloro-7-cyclopropylthieno[3,2-d]pyrimidin-4-yl)thio)acetate]	< 25

Other lines, results leading:

IC50 [nM]	Structure (SMILES)
< 25	CCS(=O)(=O)NC(=O)CSc1ncnc2sc(C)c(C)c12 [2-((5,6-dimethylthieno[2,3-d]pyrimidin-4-yl)thio)-N-(ethylsulfonyl)acetamide]
< 25	COC(=O)CSc1ncnc2sc(C)c(C3CC3)c12 [methyl 2-((5-cyclopropyl-6-methylthieno[2,3-d]pyrimidin-4-yl)thio)acetate]
< 100	Cc1ccc(S(=O)(=O)NC(=O)CSc2ncnc3sc(C)c(C)c23)nc1 [2-((5,6-dimethylthieno[2,3-d]pyrimidin-4-yl)thio)-N-((5-methylpyridin-2-yl)sulfonyl)acetamide]
< 250	Cc1sc2ncnc(SCC(=O)N3CCC(C(N)=O)CC3)c2c1C [1-(2-((5,6-dimethylthieno[2,3-d]pyrimidin-4-yl)thio)acetyl)piperidine-4-carboxamide]
< 100	Cc1sc2ncnc(SCC(=O)NCc3cccs3)c2c1C [2-((5,6-dimethylthieno[2,3-d]pyrimidin-4-yl)thio)-N-(thiophen-2-ylmethyl)acetamide]
< 25	Cc1sc2ncnc(SCC(=O)NCc3ccco3)c2c1C [2-((5,6-dimethylthieno[2,3-d]pyrimidin-4-yl)thio)-N-(furan-2-ylmethyl)acetamide]
< 25	COC(=O)CSc1ncnc2sc(C3CC3)c(C)c12 [methyl 2-((6-cyclopropyl-5-methylthieno[2,3-d]pyrimidin-4-yl)thio)acetate]
< 25	Cc1sc2ncnc(SCC(=O)NS(=O)(=O)C3CC3)c2c1C [N-(cyclopropylsulfonyl)-2-((5,6-dimethylthieno[2,3-d]pyrimidin-4-yl)thio)acetamide]
